Experimental data published in patent US20240016784A1, “Y BOX BINDING PROTEIN 1 INHIBITORS” (Oregon Health & Science University, priority 2020, published 2024).

Legend:
[1] = system: efflux of paclitaxel in OC cells; experiment: Paclitaxel efflux assay; assay type: cell-based; conditions: SU056 co-treatment vs only paclitaxel-treated cells
Description: YB-1 is involved in the emergence of cisplatin and taxane drug resistance (Kang et al., 2013, Mo et al., 2016). Therefore, we tested whether SU056 synergizes with chemotherapies such as paclitaxel to modulate YB-1. To measure this, we performed a dose dependent combination study of SU056 and paclitaxel. […] ABCB1/MDR1 drug efflux pumps are also known to play an important downstream role with YB-1 in increased taxol efflux and subsequent TR in cancer. To evaluate whether SU056 affects drug efflux, we used Alexa Fluor-488-tagged paclitaxel to measure taxol efflux in vitro. […] Efflux is primarily driven by the ATP-binding cassette transporters (ABC pumps) present on the cell surface (Genovese et al., 2017). We examined the expression of MDR1 and YB-1 in OVCAR8 cells treated with vehicle, SU056, and paclitaxel combinations via Western blot.
Paclitaxel efflux assay: OC cells were treated with 5 nM Oregon Green™ 488-conjugated paclitaxel (Molecular Probes, #P22310) for 1 h. Cells were washed and incubated in phenol red-free DMEM media supplemented with 10% FBS. After each respective time point (30, 60, 120, 180 minutes), the media was collected and centrifuged to remove floating cells. The fluorescence intensity of efflux paclitaxel in media was read at Ex 496 and Em 524 using a multimode plate reader.
Combination index values for paclitaxel and SU056. […] FIG. 7C) Immunoblotting of YB-1 and MDR1. […]

[2] = Pharmacokinetics study; assay type: in vivo; conditions: injection of 20 mg/kg, intraperitoneal, mouse
Protocol: In a pharmacokinetics study in vivo, injection of 20 mg/kg SU056 led to a maximum serum concentration of 28.19 μg/mL with a T1/2 of ˜45 min. We then tested the synergism of paclitaxel and SU056 co-treatment in vivo in NOD-SCID mice implanted with OVCAR8 OC tumors as described above. Mice were given daily treatment of SU056 (10 mg/kg) and weekly treatment of paclitaxel (5 mg/kg) were administered intraperitoneally. […] This likely resulted from decreased paclitaxel efflux from OVCAR8 cells in the presence of SU056.
Pharmacokinetics study: SU056 Plasma concentration was determined by mass quantification analysis using an Agilent 6490 Funnel triple quadrupole (QQQ) mass spectrometer equipped with an Agilent 1290 infinity II UHPLC. An analytical C18 column, ZORBAX C18 (Eclipse Plus, 2.1×50 mm, 1.8 μm particle size) was used. The mobile phase was composed of 60% water buffered with 0.1% formic acid and 4 mM ammonium formate and 40% acetonitrile buffered with 0.1% formic acid. […] The precursor ion [M+H]+ and product ion for SU056 were monitored at m/z 370.0 and m/z 274.2, respectively. And the precursor ion [M+H]+ and product ion for IS were monitored at m/z 338.1 and m/z 260, respectively. […]
FIG. 10: Pharmacokinetics of SU056. […] After injection plasma was collected at respective time point and was analyzed using LC MS/MS as described in method.

**Q.** For `O=C1OCC2=C1C(c1cccc(F)c1)c1cc3c(cc1N2CCO)OCO3` (stereo not drawn) [SU056, 9-(3-fluorophenyl)-5-(2-hydroxyethyl)-6,9-dihydro-[1,3]dioxolo[4,5-g]furo[3,4-b]quinolin-8(5H)-one], which “efflux of Alexa Fluor-488-tagged paclitaxel” value [1] is on record?
**A.** significantly inhibits the efflux of paclitaxel

**Q.** And the maximum serum concentration [2]?
**A.** 28.19 µg/mL

**Q.** What about the half-life ([2]; plasma, ip) of the same compound?
**A.** ~45 min
